Assay results as given in patent US20170356900A1, “TOXICANT ASSAYS FOR COSMETIC PRODUCTS” (priority 2016, published 2017).

System: zebrafish (Danio rerio) AB strain embryos
Assay: Acute toxicity testing using zebrafish embryos (mortality after 48 hr exposure)
Format: in vivo
Details: positive control, 3.7 mg/L; 48 hr exposure at 26° C.
Procedure: Extracts prepared as described in Example 1 were tested for acute toxicity using zebrafish (Danio rerio) AB strain embryos. BB cream extracts were diluted into zebrafish embryo culture medium at nominal concentrations of 0.3, 0.6, 1.4, 3.0 and 6.7 g/L. Zebrafish AB strain embryos of 4-128 cell stages were exposed to extract dilutions in a 96-well plate at 1 embryo per well. Each concentration was tested with 20 embryos. Zebrafish embryo culture medium and 3.7 mg/L dichloroaniline were included as negative and positive controls, respectively. After 48 hr exposure at 26° C., zebrafish embryos were observed under a stereomicroscope and fish embryos that were coagulated, tail not detached, and having no heart beat were marked as dead. Mortality rate for each concentration was calculated as the acute toxicity endpoint. The mortality rate for the negative control was 0% and for the positive control was 30%. […] Of the three BB cream extracts, brand C was the most toxic and brand B was the least toxic to zebrafish embryos.

SMILES: Nc1ccc(Cl)c(Cl)c1 [dichloroaniline]
- mortality rate: 30%
